# Patent US20060194815A1, “Methods and compositions for modulating serum cortisol levels” (priority 2003, published 2006)
# Test system: Y1 mouse adrenal tumor cells
# Assay: dbcAMP-induced 20á-hydroxyprogesterone synthesis in Y1 cells (RIA)
# Assay type: cell-based
# Procedure: Culture media were then changed and cells were stimulated with 1 mM dbcAMP and the treatment for 24 to 48 hours. […] The synthesis of 20-OH progesterone and progesterone in Y1 and MA-10 cell media respectively were measured by RIA (Brown et al., 1992). H295R human adrenal tumor cells were seeded in 48-well plates at 10^5 cells/well and incubated for 24 hours. […] At the end of the incubation time period, cells were treated with 1 mM dbcAMP for 48 hours. Cortisol levels in the media were determined by radioimmunoassay as previously described (Amri et al., 1996).
structure (smiles),measurement,setting,value
"CC1CN(C(=O)C(Cc2c[nH]c3ccccc23)NC(=O)c2ccc([N+](=O)[O-])cc2)CCN1C(=O)C1CC1 (stereo not drawn) [SP010, N-[2-(4-cyclopropanecarbonyl-3-methyl-piperazin-1-yl)-1-(1H-indol-3-yl-methyl)-2-oxo-ethyl]-4-nitro-benzamide]",efficacy on Y1 adrenocortical cells across concentrations,"1, 10 and 100 iM",maintained the same efficacy
same,dbcAMP-induced 20á-hydroxyprogesterone production,"Y1 cells, 1 mM dbcAMP, increasing concentrations",decreased in a dose-dependent manner
same,potency compared with procaine on cAMP-corticosteroid formation,even at a concentration as low as 1 μM,as potent as procaine
